Laboratory results: patent US10912774B2, “Pyrimidine FGFR4 inhibitors” (priority 2013, dated 2021)

Tested on: HEP3B tumor xenografts
Format: in vivo
[1] = Hep3B xenograft, 60 mg/kg orally twice daily

| SMILES | efficacy compared with compound 108 [1] | tolerability (health of animals) [1] | efficacy compared with BGJ398 (Hep3B xenograft, 25, 37.5 or 50 mg/kg i.p. twice daily) |
| --- | --- | --- | --- |
| CCN1CCN(c2ccc(Nc3cc(N(C)C(=O)Nc4c(Cl)c(OC)cc(OC)c4Cl)ncn3)cc2)CC1 [BGJ398] | efficacy comparable to compound 108 | had to be terminated on Day 11 due to poor health of animals |  |
| C=CC(=O)Nc1cc(N2CCN(CC)CC2)ccc1Nc1cc(N(C)C(=O)Nc2c(Cl)c(OC)cc(OC)c2Cl)ncn1 [Compound 108, N-(2-(6-(3-(2,6-Dichloro-3,5-dimethoxyphenyl)-1-methylureido)pyrimidin-4-ylamino)-5-(4-ethylpiperazin-1-yl)-phenyl)acrylamide] |  |  | more efficacious than BGJ398 at tolerable dosage levels |
